Experimental data from article PMC10672221, “The Plant Defensin Ppdef1 Is a Novel Topical Treatment for Onychomycosis” (Journal of Fungi, 2023).
Positions of bridges follow the written chain, without caps; N, C: chain ends. No end group written: not given here.

Experiments:
[1] = system: C. albicans cells; experiment: Propidium iodide uptake in response to antifungal treatment (flow cytometry); assay type: cell-based, Candida albicans; settings: 30 min; for treated cells no longer viable (PI positive): 50 µg/mL; for treated cells no longer viable (PI positive) / treated cells no longer viable / cells killed (PI positive): 30 °C, 1/2 PDB, flow cytometry; for treated cells no longer viable / cells killed (PI positive): 100 µg/mL
Protocol: A culture of C. albicans cells (OD600 = 0.3 in ½ PDB) was prepared. Aliquots of the culture (300 µL) were transferred to 1.5 mL tubes and treated with 3.125, 6.25, 12.5, 25, 50, or 100 µg/mL of Ppdef1, efinaconazole, ciclopirox, terbinafine, or tavaborole. Water or dimethyl sulfoxide (DMSO) was added to the untreated control samples. Propidium iodide (2 µL of 1 mg/mL stock) was also added to each sample, and the cells were incubated for 30 min at 30 °C before they were pelleted using centrifugation, resuspended in 300 µL of PBS and transferred to the wells of a 96-well plate. Cells were assessed for fluorescence using the PI channel on a FACS Canto 2 flow cytometer (BD). Cells with fluorescence of more than 185 rfu were considered positive for PI uptake.

[2] = Nail penetration assay (Franz cell nail adaptors); assay type: in vitro ADME, human; settings: for average penetration per day at Days 7-10: Ppdef1 1% (six replicates), terbinafine 1% in same vehicle (four replicates); for maximum level of penetration on any one day: 10 days daily application, efinaconazole 10% as Jublia (maximum on day 8); for applied dose that penetrated the nails on all days, except for terbinafine on Days 7 and 9: efinaconazole 10%
Protocol: Nail penetration assays were conducted essentially as described by Hui et al.. Human fingernail clippings (minimum size: 6.5 mm × 6.5 mm) were hydrated by placing them on folded Kimwipe tissues soaked in 3 mL of phosphate-buffered saline (PBS, pH 7.4) for 3 h at 26 °C. After hydration, nails were placed in plastic Franz cell nail adaptors (Perme Gear, Hellerton, PA, USA) with cotton wool (20 mg ± 2 mg) pre-soaked with 100 µL of phosphate-buffered saline with Tween 0.05% (PBST, pH 7.4) placed underneath the nail. Nails were sealed into the adaptors with silicone and checked for leaks by applying 10 µL of water to the top of the nail for at least 20 min (RT). Ppdef1 drug product (10 µL; 1% Ppdef1 in 50 mM acetate buffer, pH 4.0, 20% isopropanol, 20% propylene glycol), terbinafine (1% in 50 mM acetate buffer, pH 4.0, 20% isopropanol, 20% propylene glycol), or efinaconazole (formulated as Jublia (Valeant)) was applied to the top of the nail, and nails were incubated at 26 °C for 16 h in a Petri dish. A moist Kimwipe was added to the Petri dish to maintain humidity. After 16 h, the cotton wool was removed from the underside of the nail and set aside for analysis. The top of the nail was washed to collect excess test compound that had not penetrated the nail. First, a dry cotton swab was used to collect any excess liquid on the nail. A second swab soaked in 100 µL of water was then wiped over the top of the nail. An additional dry swab was used to collect any remaining liquid. A fresh piece of cotton wool soaked in 100 µL PBST was added to the underside of the nail. The nail was incubated at 26 °C for 1 h to allow for rehydration. Additional test solution (10 µL) was applied, and the process was repeated daily for 10 days. To quantify the amount of test item that had penetrated the nail, cotton wool removed from the underside of the nail was washed twice with 500 mM CaCl2 (200 µL) and then once with 0.1% TFA (200 µL). The cotton wool was incubated with the wash solution for 10 min at 26 °C for each wash. Cotton wool washes were pooled and analysed using RP-HPLC (300SB-C8 analytical column attached to a 1200 series HPLC (Agilent, Santa Clara, CA, USA)). Ethics approval for use of the nail clippings was granted by the La Trobe University Human Ethics Committee for the collection of nail clippings (approval number: HEC18414).

[3] = systemic (oral), after a 12 week treatment; cited from earlier work
From the text: These infections are hard to treat, can be painful, and have a cosmetic impact on the patient. Current topical treatments for onychomycosis require daily or weekly application for 48 weeks, and even these exhaustive treatment regimens produce low complete cure rates. Until 2014, […]® and its generic equivalents, with the active ingredient ciclopirox, were the only prescription strength topical onychom ... || Several systemic (oral) treatments have been approved for the treatment of onychomycosis. […] The FDA reported in its review of efinaconazole (Center for Drug Evaluation and Research; […] Fungicidal activity in the presence of keratin is hypothesised to correlate with the clinical efficacy for the topical onychomycosis products, ciclopirox and efinaconazole. The complete cu ...

[4] = system: T. rubrum growing on human nail fragments; experiment: Cell killing of T. rubrum growing on nail fragments (PrestoBlue); assay type: cell-based, Trichophyton rubrum
Protocol: Human nail fragments (~2 mm × 2 mm) were sterilized in water at 99 °C for 4 h. A single nail fragment was placed into each well of a 96-well microtiter plate along with 100 µL of sterile water. T. rubrum conidia (100 µL) were added to obtain a final concentration of 1.5 × 10^5 conidia/mL. Control wells were inoculated with water only. Plates were then incubated for 96 h at 28 °C without shaking to allow T. rubrum to colonise the nail material. After the nail fragments were colonised with T. rubrum, they were treated with Ppdef1 or efinaconazole at a final concentration of 100 or 200 µg/mL. Six replicate wells were used per treatment, and two independent replicates were performed. As efinaconazole was dissolved in ethanol, all wells treated with Ppdef1 were adjusted with ethanol to a final concentration of 1% ethanol. Plates were then incubated for 20 h at 28 °C.
After the 20 h incubation, 20 µL of PrestoBlue® (Thermo Fisher, Scoresby, Victoria, Australia) was added to each well, and the mixture was transferred to a black-wall, clear-bottom microplate. […] The reaction was allowed to proceed for 24 h before fluorescence was measured in an M5e spectrophotometer (Molecular Devices, San Jose, CA, USA) using an excitation wavelength of 560 nm and an emission wavelength of 590 nm as described in the manufacturer’s instructions (Thermo Fisher, Scoresby, Victoria, Australia).

[5] = terbinafine 1%, four replicates
[6] = 10 µL daily, 26 °C, RP-HPLC, average of six replicates
[7] = 10 µL daily, 26 °C, RP-HPLC, six replicates

Compound	treated cells no longer viable (PI positive) [1]	treated cells no longer viable / cells killed (PI positive) [1]	average penetration per day at Days 7-10 ([2]; 10 µL daily, 26 °C, RP-HPLC) [%]	maximum level of penetration on any one day [2, 5] [%]	applied dose that penetrated the nails on all days, except for terbinafine on Days 7 and 9 ([2]; terbinafine 1%)	cure rate [3] [%]	other results
CN(C/C=C/C#CC(C)(C)C)Cc1cccc2ccccc12 [terbinafine]	no significant cell death	less than 25%	3.8	7.0	less than 5%	38	applied dose that penetrated the nails on Days 7 and 9 ([2]; terbinafine 1%): less than 10%; penetration observed on most days ([2]; terbinafine 1%, daily for 10 days, four replicates): approximately 3.0%
Cc1cc(C2CCCCC2)n(O)c(=O)c1 [ciclopirox]	~ 20%	58.7%					
OB1OCc2cc(F)ccc21 [tavaborole]	no significant cell death	less than 25%					
C=C1CCN([C@H](C)[C@](O)(Cn2cncn2)c2ccc(F)cc2F)CC1 [efinaconazole]	no significant cell death			2.2	less than 5%		cell death (PI uptake) ([1]; any of the tested concentrations (3.125-100 µg/mL)): did not induce a significant cell death; hyphal biomass killed relative to the untreated control ([4]; 200 µg/mL, keratin as sole nutrient source, 1% ethanol, 28 °C, PrestoBlue): little impact; decrease in viable fungi ([4]; either concentration (100 or 200 µg/mL)): did not cause a significant decrease; average penetration per day on Days 1-7, 9, and 10 ([2]; efinaconazole 10% (Jublia), four replicates): approximately 0.5%
CCC(C)n1ncn(-c2ccc(N3CCN(c4ccc(OCC5COC(Cn6cncn6)(c6ccc(Cl)cc6Cl)O5)cc4)CC3)cc2)c1=O (stereo not shown) [itraconazole]						14	
AKVCTKPSKFFKGLCGTDGACTTACRKEGLHSGYCQLKGFLNSVCVCRKHC (disulfide 4-51, 15-35, 21-45, 25-47) [Ppdef1]			26.1				applied dose that penetrated the nail, first day ([2]; 10 µL applied daily, 26 °C, 16 h, cotton wool under nail, RP-HPLC, 1% Ppdef1 in 50 mM acetate pH 4.0, 20% isopropanol, 20% propylene glycol, average of six replicates): 13.3%; applied dose that penetrated the nail, Day 2 [2, 6]: 3.2%; applied dose that penetrated the nail, Day 3 [2, 6]: 2.0%; average penetration per day over Days 4, 5, and 6 [2, 7]: 13.1%; penetration by Day 7 [2, 7]: approximately 26%; applied dose that penetrated the nail on Days 7-10 ([2]; Ppdef1 1%): Greater than 20%; amount passed through the nail ([2]; daily application of 10 µL of a 1% solution for 10 days): more than 150 µg
